Data: patent US7205322B2, “Thiazolidine compounds as calcium sensing receptor modulators” (Bristol-Myers Squibb Company, priority 2003, dated 2007)
Structures can show the parent of a compound that is named as a salt.

Columns and labels:
[1] = OVX rats; oral administration; in the presence of an anti-resorptive agent (Gowen et al. 2000); cited from earlier work
[2] = intravenous bolus injection; cited from earlier work
[3] = postmenopausal women; placebo-controlled trial (Neer et al. 2001); cited from earlier work

## CC(C)(Cc1ccc2ccccc2c1)NC[C@H](O)[C@H]1CSCN1Cc1ccc(SCc2ccco2)c([N+](=O)[O-])c1 (stereo in doubt) [Example 4, 2-(1,1-Dimethyl-2-naphthalen-2-yl-ethylamino)-1-{3-[4-(furan-2-ylmethylsulfanyl)-3-nitro-benzyl]-thiazolidin-4-yl}-ethanol]
other
  melting point: 80 to 85 °C

## COc1ccc(CC(C)(C)NC[C@H](O)[C@H]2CSCN2Cc2cccc(C#N)c2)cc1 (stereo in doubt) (as salt: hydrochloride) [Example 3, 3-(4-{1-Hydroxy-2-[2-(4-methoxy-phenyl)-1,1-dimethyl-ethylamino]-ethyl}-thiazolidin-3-ylmethyl)-benzonitrile]
other
  melting point: 158 to 163 °C

## CC(C)(Cc1ccc2ccccc2c1)NC[C@@H](O)COc1cccc(Cl)c1C#N [NPS-2143]
[1]
  effect on bone mass: increase in bone mass
[2]
  effect on serum PTH: transient increase in serum PTH

## PTH peptide fragment (1–34): PTH peptide fragment (1–34), parathyroid hormone fragment; stimulator of bone formation (SVSEIQLMHNLGKHLNSMERVEWLRKKLQDVHNF; Parathyroid hormone; UniProt P01270 32-65, looked up, fragment)
[3]
  reduction of the risk of non-traumatic, non-spine fractures: 54%
  reduction of the risk of spine fractures: 65%
